One assay addresses T1, cloned rat mGlu1 receptor (Rattus norvegicus, UniProt P23385).
T1 construct: expressed in transfected cells; host or cells: CHO cells
Briefly: Signal transduction at the cloned rat mGlu1 receptor in CHO cells (glutamate-induced Ca2+ rise, FLIPR). To be noted: 50% inhibition of the glutamate-induced intracellular Ca2+ rise; CHO cells, FLIPR. The format is cell-based.
T1 sequence (P23385 19-1199): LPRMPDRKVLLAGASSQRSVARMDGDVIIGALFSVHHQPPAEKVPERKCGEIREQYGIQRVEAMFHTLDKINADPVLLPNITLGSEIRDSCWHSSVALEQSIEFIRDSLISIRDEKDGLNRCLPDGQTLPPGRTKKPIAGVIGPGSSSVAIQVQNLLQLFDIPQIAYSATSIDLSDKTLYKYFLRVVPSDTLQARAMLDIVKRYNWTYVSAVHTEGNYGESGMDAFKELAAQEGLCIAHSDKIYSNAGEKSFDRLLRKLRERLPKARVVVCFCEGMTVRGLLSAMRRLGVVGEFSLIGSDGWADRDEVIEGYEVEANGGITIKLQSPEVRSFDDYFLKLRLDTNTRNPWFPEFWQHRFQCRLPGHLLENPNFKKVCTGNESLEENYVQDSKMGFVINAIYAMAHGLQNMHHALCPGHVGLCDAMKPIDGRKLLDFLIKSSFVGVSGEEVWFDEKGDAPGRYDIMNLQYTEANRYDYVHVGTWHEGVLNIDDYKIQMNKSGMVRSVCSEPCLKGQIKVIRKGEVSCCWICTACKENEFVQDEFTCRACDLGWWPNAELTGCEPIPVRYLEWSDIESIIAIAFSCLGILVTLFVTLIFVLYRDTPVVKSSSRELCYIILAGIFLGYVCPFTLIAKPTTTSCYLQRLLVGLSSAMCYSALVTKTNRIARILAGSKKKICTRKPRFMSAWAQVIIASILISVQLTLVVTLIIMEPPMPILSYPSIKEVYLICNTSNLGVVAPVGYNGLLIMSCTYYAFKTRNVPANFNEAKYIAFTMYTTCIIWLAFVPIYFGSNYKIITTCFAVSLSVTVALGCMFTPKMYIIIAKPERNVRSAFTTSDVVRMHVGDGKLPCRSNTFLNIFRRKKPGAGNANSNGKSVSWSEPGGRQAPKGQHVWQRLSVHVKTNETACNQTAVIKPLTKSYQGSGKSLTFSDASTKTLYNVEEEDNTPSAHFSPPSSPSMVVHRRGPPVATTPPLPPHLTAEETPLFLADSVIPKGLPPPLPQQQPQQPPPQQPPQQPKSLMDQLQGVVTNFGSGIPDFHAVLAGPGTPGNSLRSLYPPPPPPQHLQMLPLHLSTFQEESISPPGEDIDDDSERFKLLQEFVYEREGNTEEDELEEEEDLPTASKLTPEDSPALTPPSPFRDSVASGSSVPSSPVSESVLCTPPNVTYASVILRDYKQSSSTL
Turning to `CO[C@H]1CC[C@H](C(=O)c2ccc3nc4c(cc3c2)CCS4)CC1` [Compound 418], the IC50 is 0.00902 µM.

With `Cc1cc2cc3c(cc2cc1C(=O)Cc1ccccc1)CCCS3` [Compound 506], the IC50 was 0.00331 µM.

For `COC1CCC(C(=O)c2ccc3nc4c(cc3c2)CCCS4)CC1` (stereo not shown) [Compound 176], the midpoint of inhibition, the IC50, lay at 0.00468 µM.

In turn, `COC1CCC(C(=O)c2ccc3nc4c(cc3c2)CCCC4)CC1` (stereo not shown) [Compound 420] showed an IC50 of 0.00733 µM.

As for `O=C(CC1CC2CCC1C2)c1ccc2nc3c(cc2c1)CCCO3` (stereo not shown) [Compound 497], half-maximal inhibition (IC50) required 0.00944 µM.

`CCc1cc2cc(C(=O)Cc3ccccc3)ccc2nc1C` [Compound 237] had an IC50 of 0.00977 µM.

For `CCc1cc2cc(C(=O)[C@H]3CC[C@@H](OC)CC3)c(C)cc2[nH]c1=O` [Compound 419], the IC50 is 0.00861 µM.

As to `O=C(Cc1ccccc1F)c1ccc2nc3c(cc2c1)CCCS3` [Compound 499], inhibition was half-maximal at 0.01 µM (IC50).

For `CO[C@H]1CC[C@@H](C(=O)c2ccc3nc4c(cc3c2)CCS4)CC1` [Compound 416], the IC50 was 0.00259 µM.

On to `O=C(Cc1ccccc1F)c1ccc2nc3c(cc2c1)CCCO3` [Compound 477], for which half-maximal inhibition (IC50) was put at 0.00562 µM.

In the case of `CC1Cc2cc3cc(C(=O)Cc4ccccc4)ccc3nc2O1` (stereo not shown) [Compound 455], the IC50 was 0.00881 µM.

With `O=C(Cc1ccccc1)c1ccc2nc3c(cc2c1)CCCO3` [Compound 432], half-maximal inhibition (IC50) required 0.00579 µM.

As to `O=C(Cc1ccccc1)c1ccc2nc3c(cc2c1)CCCS3` [Compound 439], the IC50 is 0.00948 µM.

Compound `COC1CCC(C(=O)c2ccc3nc4c(cc3c2)CCCO4)CC1` (stereo not shown) [Compound 174] showed an IC50 of 0.00324 µM.

On to `O=C(Cc1ccsc1)c1ccc2nc3c(cc2c1)CCCO3` [Compound 465], for which the half-maximal inhibitory concentration (IC50) was 0.00716 µM.

On to `COC1CCC(C(=O)c2ccc3nc4c(cc3c2)CCO4)CC1` (stereo not shown) [Compound 429], for which the IC50 was 0.00417 µM.

`CCc1cc2cc(C(=O)C3CCC(OC)CC3)c(C)cc2nc1C` (stereo not shown) [Compound 214] showed an IC50 of 0.00585 µM.

Still in this assay, the particulars now being: inhibition of glutamate-induced intracellular Ca2+ rise, CHO cells expressing mGlu1 receptor; compounds with pIC50 between 7 and 8.
`CCc1cc2cc(C(=O)C3CCC(OC)CC3)ccc2nc1NC(=O)CCCC1CCCCC1` (stereo not shown) [Compound 346] had a half-inhibitory concentration (IC50) of 0.0182 µM.

`CCCc1cc2cc(C(=O)[C@H]3CC[C@@H](OC)CC3)ccc2nc1Cl` [Compound 291]: the IC50 was 0.0447 µM.

`CCCc1cc2cc(C(=O)Cc3ccccc3)ccc2nc1C` [Compound 290] gave an IC50 of 0.0871 µM.

In the case of `CCc1cc2cc(C(=O)Cc3ccccc3OC)ccc2nc1C` [Compound 236], it took 0.0676 µM to reach half-maximal inhibition (IC50).

`O=C(c1ccc2nc3c(cc2c1)CCS3)C1(F)CC2CCC1C2` (stereo not shown) [Compound 496] showed a half-maximal inhibitory concentration (IC50) of 0.0661 µM.

As for `O=C(c1ccc2nc3c(cc2c1)CCS3)C12CC3CC(CC(C3)C1)C2` [Compound 449], the midpoint of inhibition, the IC50, lay at 0.017 µM.

On to `CCc1cc2cc(C(=O)C3CCC(OC)CC3)ccc2nc1NC(=O)Nc1ccccc1SC` (stereo not shown) [Compound 373], for which half-maximal inhibition (IC50) was put at 0.0562 µM.

Consider `O=C(Cc1ccc(F)cc1)c1ccc2nc3c(cc2c1)CCCS3` [Compound 483], for which the IC50 was 0.0138 µM.

For `CCOCC(=O)Nc1nc2ccc(C(=O)C3CCC(OC)CC3)cc2cc1CC` (stereo not shown) [Compound 326], inhibition was half-maximal at 0.0389 µM (IC50).

Compound `CCc1cc2cc(C(=O)[C@H]3CC[C@H](OC)CC3)c(C)cc2[nH]c1=O` [Compound 213] gave a half-inhibitory concentration (IC50) of 0.02 µM.

Regarding `CCc1cc2cc(C(=O)Cc3ccccc3)ccc2nc1N` [Compound 289], it took 0.0537 µM to reach half-maximal inhibition (IC50).

Compound `COCc1cc2cc(C(=O)[C@H]3CC[C@H](OC)CC3)ccc2nc1C` [Compound 286] gave a concentration for half-maximal inhibition (IC50) of 0.0933 µM.

As to `CO[C@H]1CC[C@H](C(=O)c2ccc3nc4c(cc3c2)CCCS4)CC1` [Compound 178], half-maximal inhibition (IC50) required 0.012 µM.

As for `O=C(c1ccc2nc3c(cc2c1)CCCO3)C1COc2ccccc2O1` (stereo not shown) [Compound 438], the half-maximal inhibitory concentration (IC50) is 0.0646 µM.

`CCc1cc2cc(C(=O)C3CCC(OC)CC3)ccc2nc1NC(=O)C1CCC(OC)CC1` (stereo not shown) [Compound 343] showed an IC50 of 0.0468 µM.

`CCc1cc2cc(C(=O)C3CCCC(OC)C3)ccc2nc1C` (stereo not shown) [Compound 241] showed an IC50 of 0.0214 µM.

In turn, `CCc1cc2cc(C(=O)C3CCC(OC)CC3)ccc2nc1NC(=O)c1ccc(=O)[nH]c1` (stereo not shown) [Compound 334] had an IC50 of 0.0112 µM.

`COC1CCCC(C(=O)c2ccc3nc4c(cc3c2)CCCO4)C1` (stereo not shown) [Compound 437] had an IC50 of 0.0166 µM.

`CCc1cc2cc(C(=O)C3CC4CC3CC4O)ccc2nc1Cl` (stereo not shown) [Compound 280]: it took 0.0457 µM to reach half-maximal inhibition (IC50).

Compound `COc1nc2ccc(C(=O)[C@H]3CC[C@@H](OC)CC3)cc2cc1C` [Compound 98] gave an IC50 of 0.0269 µM.

The compound `COc1ccc2cc(C(=O)[C@H]3CC[C@@H](OC)CC3)ccc2n1` [Compound 91] showed a concentration for half-maximal inhibition (IC50) of 0.0372 µM.

For `O=C(c1ccc2nc3c(cc2c1)CCCS3)C1CC2CCC1C2` (stereo not shown) [Compound 445], 0.0234 µM corresponded to half-maximal inhibition (IC50).

As for `CCc1cc2cc(C(=O)Cc3cccs3)ccc2nc1C` [Compound 298], the midpoint of inhibition, the IC50, lay at 0.0331 µM.

For the compound `CCc1cc2cc(C(=O)C3CCC(OC)CC3)ccc2nc1NC(=O)C1CCCCC1` (stereo not shown) [Compound 344], the IC50 is 0.0302 µM.

In turn, `O=C(c1ccc2nc3c(cc2c1)CCCO3)C1CC2CCC1O2` (stereo not shown) [Compound 457] showed an IC50 of 0.0724 µM.

`CCc1cc2cc(C(=O)C3CCC(OC)CC3)ccc2nc1NC(=O)Nc1ccc(N(C)C)cc1` (stereo not shown) [Compound 369] gave an IC50 of 0.0398 µM.

Take `O=C(Cc1ccc(F)cc1)c1ccc2nc3c(cc2c1)CCCO3` [Compound 475]: the IC50 was 0.0195 µM.

`CCc1cc2cc(C(=O)C34CCC(CC3)C4)ccc2nc1C` [Compound 300] showed a concentration for half-maximal inhibition (IC50) of 0.0832 µM.

For the compound `COC1CCC(C(=O)c2ccc3nc4c(cc3c2)CCCO4)=CO1` (stereo not shown) [Compound 460], the IC50 is 0.0457 µM.

`CCc1cc2cc(C(=O)C3(F)CCC(OC)CC3)ccc2nc1Cl` (single isomer, unassigned) [Compound 221] gave an IC50 of 0.0617 µM.

Take `O=C(Cc1ccc(Br)cc1)c1ccc2nc3c(cc2c1)CCCO3` [Compound 498]: the IC50 is 0.0166 µM.

Take `O=C(Cc1ccc(F)c(F)c1)c1ccc2nc3c(cc2c1)CCCO3` [Compound 474]: the IC50 is 0.0741 µM.

Regarding `CCc1cc2cc(C(=O)Cc3ccsc3)ccc2nc1Cl` [Compound 296], it took 0.0603 µM to reach half-maximal inhibition (IC50).

`CCCc1cc2cc(C(=O)C3CC4CCC3C4)ccc2nc1C` (stereo not shown) [Compound 318] gave an IC50 of 0.0955 µM.

Consider `O=C(Cc1ccccc1)c1ccc2nc3c(cc2c1)CCO3` [Compound 463], for which the IC50 is 0.0105 µM.

`O=C(c1ccc2nc3c(cc2c1)CCCO3)C1CCc2ccccc2C1` (stereo not shown) [Compound 436]: 0.055 µM corresponded to half-maximal inhibition (IC50).

Take `O=C(CCc1ccccc1)c1ccc2nc3c(cc2c1)CCCO3` [Compound 434]: the half-inhibitory concentration (IC50) is 0.0832 µM.

`CO[C@H]1CC[C@@H](C(=O)c2ccc3nc(C)c(CN(C)C)cc3c2)CC1` [Compound 287] gave an IC50 of 0.049 µM.

As to `CCc1cc2cc(C(=O)C3(F)CCC(OC)CC3)ccc2nc1C` (stereo not shown) [Compound 224], the IC50 is 0.0166 µM.

As for `CCc1cc2cc(C(=O)C3CCC(OC)CC3)ccc2nc1NC(=O)CCCc1ccc(OC)c(OC)c1` (stereo not shown) [Compound 341], the 50% inhibitory concentration (IC50) was 0.0148 µM.

For the compound `CCc1cc2cc(C(=O)C3CCC(OC)CC3)ccc2nc1NC(=O)C1CCN(C(C)=O)CC1` (stereo not shown) [Compound 333], the IC50 was 0.0389 µM.

Regarding `CCCO[C@H]1CC[C@@H](C(=O)c2ccc3nc(C)c(CC)cc3c2)CC1` [Compound 255], the midpoint of inhibition, the IC50, lay at 0.0589 µM.

Consider `CCc1cc2cc(C(=O)C3(F)CCC(OC)CC3)ccc2nc1Cl` (single isomer, unassigned) [Compound 220], for which it took 0.0135 µM to reach half-maximal inhibition (IC50).

In turn, `O=C(CCc1ccccc1)c1ccc2nc3c(cc2c1)CCS3` [Compound 448] gave an IC50 of 0.049 µM.

Consider `CCc1cc2cc(C(=O)Cc3ccccc3)ccc2nc1Cl` [Compound 117], for which half-maximal inhibition (IC50) was put at 0.0447 µM.

As to `CCCc1cc2cc(C(=O)[C@H]3CC[C@@H](OC)CC3)ccc2nc1OC` [Compound 97], the half-inhibitory concentration (IC50) was 0.0832 µM.

As to `O=C(c1ccc2nc3c(cc2c1)CCS3)[C@H]1CC[C@H](O)CC1` [Compound 422], the IC50 was 0.0955 µM.

Compound `O=C(c1ccc2nc3c(cc2c1)CCS3)C1COc2ccccc2C1` (stereo not shown) [Compound 466] had an IC50 of 0.0794 µM.

Compound `O=C(c1ccc2nc3c(cc2c1)CCS3)[C@H]1CC[C@@H](O)CC1` [Compound 421] showed an IC50 of 0.0115 µM.

In turn, `CCc1c(C)nc2ccc(C(=O)[C@H]3CC[C@@H](OC)CC3)cc2c1CC` [Compound 108] gave an IC50 of 0.0562 µM.

In turn, `CCc1cc2cc(C(=O)C3CC=CCC3)ccc2nc1C` (stereo not shown) [Compound 112] gave an IC50 of 0.0891 µM.

On to `CCc1cc2cc(C(=O)C3CCC(OC)CC3)ccc2nc1NC(=O)C12CC3CC(CC(C3)C1)C2` (stereo not shown) [Compound 199], for which the IC50 is 0.0851 µM.

For the compound `O=C(c1ccc2nc3c(cc2c1)CCCO3)C12CC3CC(CC(C3)C1)C2` [Compound 433], the IC50 was 0.0162 µM.

Compound `CCc1cc2cc(C(=O)C3CC4CC(O)C3C4)ccc2nc1Cl` (stereo not shown) [Compound 281] showed a 50% inhibitory concentration (IC50) of 0.0234 µM.

The compound `CCc1cc2cc(C(=O)[C@H]3CC[C@H](OC)CC3)ccc2nc1C` [Compound 131] showed an IC50 of 0.0646 µM.

Take `CCc1cc2cc(C(=O)CC3CCCCC34OCCO4)ccc2nc1Cl` (stereo not shown) [Compound 243]: the IC50 was 0.0513 µM.

With `O=C(c1ccc2nc3c(cc2c1)CCCO3)C1CC2CCC1O2` (stereo not shown) [Compound 456], half-maximal inhibition (IC50) required 0.0355 µM.

Take `CCO[C@H]1CC[C@@H](C(=O)c2ccc3nc(C)c(CC)cc3c2)CC1` [Compound 115]: inhibition was half-maximal at 0.0229 µM (IC50).

Consider `O=C(Cc1cccc(F)c1)c1ccc2nc3c(cc2c1)CCCO3` [Compound 473], for which 0.0479 µM corresponded to half-maximal inhibition (IC50).

`COC1CCC(C(=O)c2ccc3nc4c(cc3c2)CCO4)CC1` (stereo not shown) [Compound 429] had an IC50 of 0.0437 µM.

In turn, `CCCc1cc2cc(C(=O)CC3CC4CCC3C4)ccc2nc1C` (stereo not shown) [Compound 307] had an IC50 of 0.0776 µM.

As for `CO[C@H]1CC[C@H](C(=O)c2ccc3nc4c(cc3c2)CCCO4)CC1` [Compound 175], the half-maximal inhibitory concentration (IC50) is 0.0195 µM.

In the case of `O=C(Cc1ccccc1)c1ccc2nc3c(cc2c1)CCCCC3` [Compound 454], the IC50 is 0.0355 µM.

Regarding `O=C(Cc1ccccc1)c1ccc2nc3c(cc2c1)CCS3` [Compound 441], the IC50 was 0.0112 µM.

As for `O=C(Cc1cccc(F)c1)c1ccc2nc3c(cc2c1)CCCS3` [Compound 484], inhibition was half-maximal at 0.0288 µM (IC50).

By IC50 is commonly meant the concentration that inhibits the measured activity by half.
